Assay results as given in ChEMBL document CHEMBL1151669, “Caparratriene, an active sesquiterpene hydrocarbon from Ocotea caparrapi” (J Nat Prod, 1996).
Active and inactive are the calls of the source. No cut-off for these calls is given here.

Experiments:
[1] = tested on: CCRF-CEM; assay: Growth inhibition of human CEM cells incubated in presence of light after 24 hrs by trypan blue staining; type: functional, cell-based
[2] = tested on: CCRF-CEM; assay: Growth inhibition of human CEM cells after 24 hrs by trypan blue staining; type: functional, cell-based

For C/C=C(C)/C=C/C[C@H](C)CCC=C(C)C [CAPARRATRIENE], the Activity [1] was “Active” and the IC50 [2] was 3000 nM.
